“And” between values parts separate entries of the source, which are not always exact repeats. Equal entries are not always repeated. Where two headings read alike, the source gives them in different places.
Columns and labels:
[1] = tested on: recurrent or persistent ovarian cancer; conditions: single agent 100 mg daily; ref Personal communication, Dr. Russell J. Schilder; cited from earlier work
[2] = cited from earlier work
[3] = tested on: solid tumors; conditions: single agent dasatinib; cited from earlier work
[4] = tested on: advanced or recurrent epithelial ovarian, peritoneal, or tubal cancer; test: Response
[5] = Pharmacokinetics of dasatinib in plasma; conditions: for AUC: 100 mg, AUC(TAU), TAU = 24 h
[6] = Phase I 3+3 dose escalation: DLT, MTD, recommended phase II dose
[7] = all patients (N=20), all cycles
[8] = cohort 1 (dasatinib 100 mg), n patients
[9] = cohort 2 (dasatinib 120 mg), n patients
[10] = cohort 3 (dasatinib 150 mg), n patients
[11] = dasatinib 100 mg qd + paclitaxel + carboplatin, N=6, all cycles, patients (%)
[12] = dasatinib 120 mg qd + paclitaxel + carboplatin, N=3, all cycles, patients (%)
[13] = paclitaxel and dasatinib, Cycle 2 Day 1, N=18
[14] = with paclitaxel (Cycle 2 Day 1) vs dasatinib alone (Cycle 1 Day 15)

Question: What does the source list for `Cc1nc(Nc2ncc(C(=O)Nc3c(C)cccc3Cl)s2)cc(N2CCN(CCO)CC2)n1` [dasatinib, N-(2-chloro-6-methyl-phenyl)-2-(6-(4-(2-hydroxyethyl)-piperazin-1-yl)-2-methylpyrimidin-4-ylamino)thiazole-5-carboxamide]?
Answer: dose modifications secondary to hematologic toxicity (46/95 dose modifications): 48%; patients reporting fatigue (any grade) (all patients): Ninety; fatigue grade 3 [7]: 10%; thrombocytopenia grade 3–4 [7]: 35%; patients requiring dose modifications (cohort 1 (dasatinib 100 mg)): 100%; urinary tract infection (cohort 1 (dasatinib 100 mg)): 1; grade 1 hyponatremia (cohort 1 (dasatinib 100 mg), n): 1; grade 1 sinus pain (cohort 1 (dasatinib 100 mg), n): 9 Pain toxicity also included the following: (1) grade 2 neuralgia (n=1), grade 1 sinus pain (n=1), and grade 1 throat pain (n=1) in cohort 1; and (2) grade 1 back pain (n=1) and grade 1 extremity pain (n=1) in cohort 2.; grade 1 throat pain (cohort 1 (dasatinib 100 mg), n): 9 Pain toxicity also included the following: (1) grade 2 neuralgia (n=1), grade 1 sinus pain (n=1), and grade 1 throat pain (n=1) in cohort 1; and (2) grade 1 back pain (n=1) and grade 1 extremity pain (n=1) in cohort 2.; grade 2 neuralgia (cohort 1 (dasatinib 100 mg), n): 9 Pain toxicity also included the following: (1) grade 2 neuralgia (n=1), grade 1 sinus pain (n=1), and grade 1 throat pain (n=1) in cohort 1; and (2) grade 1 back pain (n=1) and grade 1 extremity pain (n=1) in cohort 2.; pulmonary toxicity, grade 1 other unspecified etiology (cohort 1 (dasatinib 100 mg), n): 10 Pulmonary toxicity also included the following: (1) grade 1 other unspecified etiology (n=1) in cohort 1; and (2) grade 2 hypoxia (n=1 in cohort 2.; gastrointestinal toxicity, other unspecified etiologies, grade 1 [8]: 5 Gastrointestinal toxicity included other unspecified etiologies: (1) grade 1 (n=1) and grade 2 (n=1) in cohort 1; (2) grade 1 (n=1) in cohort 2; and (3) grade 1 (n=1) in cohort 3.; gastrointestinal toxicity, other unspecified etiologies, grade 2 [8]: 5 Gastrointestinal toxicity included other unspecified etiologies: (1) grade 1 (n=1) and grade 2 (n=1) in cohort 1; (2) grade 1 (n=1) in cohort 2; and (3) grade 1 (n=1) in cohort 3.; grade 1 dehydration [8]: 4 Gastrointestinal toxicity also included the following: (1) grade 1 dehydration (n=1) in cohort 1; (2) grade 1 distension (n=1), grade 1 xerostomia (n=1), grade 1 gastritis (n=1) in cohort 2; and (3) grade 1 xerostomia (n=1) in cohort 3.; grade 1 joint-function toxicity [8]: 1 Additional toxicities in cohort 1 included musculoskeletal toxicity characterized by grade 1 joint-function toxicity (n=1) and grade 1 muscular complaints (n=1). The grade 3 myalgia is reported under pain.; grade 1 muscular complaints [8]: 1 Additional toxicities in cohort 1 included musculoskeletal toxicity characterized by grade 1 joint-function toxicity (n=1) and grade 1 muscular complaints (n=1). The grade 3 myalgia is reported under pain.; cases of grade 1 somnolence/depressed level of consciousness (cohort 2 (dasatinib 120 mg)): 8 Neurologic toxicity included one case of grade 1 somnolence/depressed level of consciousness in cohort 2.; patients requiring dose modifications (cohort 2 (dasatinib 120 mg)): 67%; grade 1 back pain (cohort 2 (dasatinib 120 mg), n): 9 Pain toxicity also included the following: (1) grade 2 neuralgia (n=1), grade 1 sinus pain (n=1), and grade 1 throat pain (n=1) in cohort 1; and (2) grade 1 back pain (n=1) and grade 1 extremity pain (n=1) in cohort 2.; grade 1 extremity pain (cohort 2 (dasatinib 120 mg), n): 9 Pain toxicity also included the following: (1) grade 2 neuralgia (n=1), grade 1 sinus pain (n=1), and grade 1 throat pain (n=1) in cohort 1; and (2) grade 1 back pain (n=1) and grade 1 extremity pain (n=1) in cohort 2.; grade 1 hypokalemia (cohort 2 (dasatinib 120 mg), n): 1; grade 1 hypomagnesemia (cohort 2 (dasatinib 120 mg), n): 1; grade 2 hypoxia (cohort 2 (dasatinib 120 mg), n): 10 Pulmonary toxicity also included the following: (1) grade 1 other unspecified etiology (n=1) in cohort 1; and (2) grade 2 hypoxia (n=1 in cohort 2.; gastrointestinal toxicity, other unspecified etiologies, grade 1 [9]: 5 Gastrointestinal toxicity included other unspecified etiologies: (1) grade 1 (n=1) and grade 2 (n=1) in cohort 1; (2) grade 1 (n=1) in cohort 2; and (3) grade 1 (n=1) in cohort 3.; grade 1 distension [9]: 4 Gastrointestinal toxicity also included the following: (1) grade 1 dehydration (n=1) in cohort 1; (2) grade 1 distension (n=1), grade 1 xerostomia (n=1), grade 1 gastritis (n=1) in cohort 2; and (3) grade 1 xerostomia (n=1) in cohort 3.; grade 1 gastritis [9]: 4 Gastrointestinal toxicity also included the following: (1) grade 1 dehydration (n=1) in cohort 1; (2) grade 1 distension (n=1), grade 1 xerostomia (n=1), grade 1 gastritis (n=1) in cohort 2; and (3) grade 1 xerostomia (n=1) in cohort 3.; grade 1 xerostomia [9]: 4 Gastrointestinal toxicity also included the following: (1) grade 1 dehydration (n=1) in cohort 1; (2) grade 1 distension (n=1), grade 1 xerostomia (n=1), grade 1 gastritis (n=1) in cohort 2; and (3) grade 1 xerostomia (n=1) in cohort 3.; patients requiring dose modifications (cohort 3 (dasatinib 150 mg)): 91%; grade 1 elevated alkaline phosphatase (cohort 3 (dasatinib 150 mg), n): 7 Metabolic toxicities also included the following: grade 1 elevated transaminases (n=1), grade 1 elevated alkaline phosphatase (n=1), and proteinuria (grade 1 (n=1), grade 2 (n=1)) in cohort 3.; grade 1 elevated transaminases (cohort 3 (dasatinib 150 mg), n): 7 Metabolic toxicities also included the following: grade 1 elevated transaminases (n=1), grade 1 elevated alkaline phosphatase (n=1), and proteinuria (grade 1 (n=1), grade 2 (n=1)) in cohort 3.; grade 1 hyponatremia (cohort 3 (dasatinib 150 mg), n): 2; grade 2 hypocalcemia (cohort 3 (dasatinib 150 mg), n): 1; grade 3 hypercalcemia (cohort 3 (dasatinib 150 mg), n): 1; hypokalemia grade 1 (cohort 3 (dasatinib 150 mg), n): 3; hypokalemia grade 4 (cohort 3 (dasatinib 150 mg), n): 1; hypomagnesemia grade 1 (cohort 3 (dasatinib 150 mg), n): 2; hypomagnesemia grade 2 (cohort 3 (dasatinib 150 mg), n): 1; hypophosphatemia grade 2 (cohort 3 (dasatinib 150 mg), n): 2; hypophosphatemia grade 3 (cohort 3 (dasatinib 150 mg), n): 1; proteinuria grade 1 (cohort 3 (dasatinib 150 mg), n): 7 Metabolic toxicities also included the following: grade 1 elevated transaminases (n=1), grade 1 elevated alkaline phosphatase (n=1), and proteinuria (grade 1 (n=1), grade 2 (n=1)) in cohort 3.; proteinuria grade 2 (cohort 3 (dasatinib 150 mg), n): 7 Metabolic toxicities also included the following: grade 1 elevated transaminases (n=1), grade 1 elevated alkaline phosphatase (n=1), and proteinuria (grade 1 (n=1), grade 2 (n=1)) in cohort 3.; gastrointestinal toxicity, other unspecified etiologies, grade 1 [10]: 5 Gastrointestinal toxicity included other unspecified etiologies: (1) grade 1 (n=1) and grade 2 (n=1) in cohort 1; (2) grade 1 (n=1) in cohort 2; and (3) grade 1 (n=1) in cohort 3.; grade 1 epitaxis [10]: 1; grade 1 facial and neck edema [10]: 1; grade 1 weight loss [10]: 2; grade 1 xerostomia [10]: 4 Gastrointestinal toxicity also included the following: (1) grade 1 dehydration (n=1) in cohort 1; (2) grade 1 distension (n=1), grade 1 xerostomia (n=1), grade 1 gastritis (n=1) in cohort 2; and (3) grade 1 xerostomia (n=1) in cohort 3.; grade 3 hypotension [10]: 1; Allergy, Grade 3 [11]: 1 (17); Dermatogic: Alopecia, Grade 2 [11]: 6 (100); Dermatogic: Pruritis, Grade 2 [11]: 1 (17); Gastrointestinal: Anorexia, Grade 1 [11]: 2 (33); Gastrointestinal: Mucositis/Stomatitis, Grade 1 [11]: 2 (33); Neurologic: Ocular, Grade 1 [11]: 1 (17); Pain: Joint, Grade 2 [11]: 2 (33); Pain: Muscle, Grade 2 [11]: 1 (17); Thrombocytopenia, Grade 1 [11]: 2 (33); Thrombocytopenia, Grade 2 [11]: 1 (17); Thrombocytopenia, Grade 3 [11]: 1 (17); Thrombocytopenia, Grade 4 [11]: 1 (17); fatigue grade 3 [11]: 2 (33); Allergy, Grade 3 [12]: 1 (33); Dermatogic: Alopecia, Grade 1 [12]: 1 (33); Dermatogic: Alopecia, Grade 2 [12]: 2 (67); Gastrointestinal: Anorexia, Grade 1 [12]: 3 (100); Gastrointestinal: Mucositis/Stomatitis, Grade 1 [12]: 1 (33); Neurologic: Ocular, Grade 1 [12]: 1 (33); Pain: Joint, Grade 2 [12]: 1 (33); Thrombocytopenia, Grade 3 [12]: 1 (33); clinically-significant pleural effusions, ascites, or cardiac issues (in vivo): not observed; other infections (in vivo): Two; patient deaths during the treatment phase (in vivo): no patient deaths; reports of infection associated with febrile neutropenia (in vivo): one; Grade 3 and 4 neutropenia and thrombocytopenia [1]: not observed; cases of grade 3 anemia [1]: 1; median PFS [1]: 2.1 months; responses [1]: no responses; incidence of effusions ([2]; 140 mg daily): 9%; severe pericardial effusions [2]: 1%; severe pleural effusions [2]: 5%; grade 3 to 4 hematologic toxicity ([2]; patients with solid tumors): 3–6%; best clinical response: PRs [3]: 1–5%; best clinical response: stable disease [3]: 5–23%; complete responses (CR) ([4]; 3/20): 15%; partial responses (PR) ([4]; 5/20): 25%; PFS6-month actuarial estimate ([4]; 95% confidence interval 69–100%): 86%; median OS ([4]; in vivo): 16.2 months; median PFS ([4]; in vivo): 7.8 months; T-HALF, Mean (SD) ([5]; dasatinib alone, Cycle 1 Day 15, N=14): 6.17 h and 6.17 (2.32) h; Tmax ([5]; human, plasma, oral): 2 h; AUC ([5]; human, plasma, oral, Geo Mean (%CV), dasatinib alone, Cycle 1 Day 15, N=14, dose-normalized to 100 mg): 478 ng·h/mL; AUC ([5]; human, plasma, oral, Geo Mean (%CV), paclitaxel and dasatinib, Cycle 2 Day 1, N=18, dose-normalized to 100 mg): 415 ng·h/mL; Cmax ([5]; human, plasma, oral, Cmax, Geo Mean (%CV), paclitaxel and dasatinib, Cycle 2 Day 1, N=18, dose-normalized to 100 mg): 78 ng/mL; inter-individual variability (%CV) for exposure ([5]; in vivo): 40–90%; T-HALF, Mean (SD) [5, 13]: 5.27 h and 5.27 (1.26) h; Tmax, Median (min, max) [5, 13]: 2.00 (0.50, 6.00) h; reduction of geometric mean AUC(0-T) [5, 14]: 11%; reduction of geometric mean AUC(TAU) [5, 14]: 13%; DLT observed ([6]; dasatinib 120 mg daily, paclitaxel 175 mg/m2, carboplatin AUC 6): no DLTs; DLT observed ([6]; dasatinib 150 mg daily, paclitaxel 175 mg/m2, carboplatin AUC 6, first cycle): no DLTs; grade 4 neutropenia at 2 weeks ([6]; first three patients of the dasatinib 150 mg daily cohort): all three patients; predefined MTD ([6]; in combination with paclitaxel and carboplatin, doses up to 150 mg daily): not reached

Reference: article PMC3463759 (Clinical cancer research : an official journal of the …, 2012)
